Where “and” joins values, the source holds several entries; their conditions need not be identical. Equal values may be shown once.
Columns and labels:
[1] = target: Norepinephrine transporter (Rattus norvegicus, UniProt Q9JIA2)
[2] = target: Sodium-dependent serotonin transporter (Rattus norvegicus, UniProt P31652)
[3] = target: Kappa-type opioid receptor (Rattus norvegicus, UniProt P34975)
Mu-type opioid receptor = Mu-type opioid receptor (Rattus norvegicus, UniProt P33535)
Mu-type opioid receptor, sequence (P33535 whole entry): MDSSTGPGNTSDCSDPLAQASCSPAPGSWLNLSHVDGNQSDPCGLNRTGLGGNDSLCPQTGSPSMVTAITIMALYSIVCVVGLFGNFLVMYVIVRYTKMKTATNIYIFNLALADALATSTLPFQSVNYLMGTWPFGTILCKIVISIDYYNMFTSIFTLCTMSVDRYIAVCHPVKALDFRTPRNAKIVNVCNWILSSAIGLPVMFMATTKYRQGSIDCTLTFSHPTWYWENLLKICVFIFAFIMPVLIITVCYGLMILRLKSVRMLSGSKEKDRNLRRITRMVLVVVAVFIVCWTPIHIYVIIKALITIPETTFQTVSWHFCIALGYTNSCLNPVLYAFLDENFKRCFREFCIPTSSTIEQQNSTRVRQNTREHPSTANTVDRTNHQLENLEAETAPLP

Sodium-dependent serotonin transporter, sequence (P31652 whole entry): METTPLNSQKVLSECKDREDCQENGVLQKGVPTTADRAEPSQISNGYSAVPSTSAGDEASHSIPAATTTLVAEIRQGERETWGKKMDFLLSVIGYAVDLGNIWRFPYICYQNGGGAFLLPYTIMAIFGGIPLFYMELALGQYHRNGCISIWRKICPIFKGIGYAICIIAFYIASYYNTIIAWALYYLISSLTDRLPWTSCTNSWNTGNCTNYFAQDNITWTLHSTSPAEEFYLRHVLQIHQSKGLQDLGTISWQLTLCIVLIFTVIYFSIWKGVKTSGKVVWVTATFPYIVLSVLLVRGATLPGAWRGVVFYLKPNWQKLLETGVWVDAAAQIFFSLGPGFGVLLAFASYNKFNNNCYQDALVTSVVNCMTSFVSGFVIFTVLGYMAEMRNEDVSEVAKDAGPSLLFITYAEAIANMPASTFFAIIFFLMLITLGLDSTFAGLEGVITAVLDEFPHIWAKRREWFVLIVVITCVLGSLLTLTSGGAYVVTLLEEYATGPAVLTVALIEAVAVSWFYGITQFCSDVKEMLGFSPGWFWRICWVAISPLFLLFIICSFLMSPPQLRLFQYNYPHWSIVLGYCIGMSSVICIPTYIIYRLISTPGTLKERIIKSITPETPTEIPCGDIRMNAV
Kappa-type opioid receptor, sequence (P34975 whole entry): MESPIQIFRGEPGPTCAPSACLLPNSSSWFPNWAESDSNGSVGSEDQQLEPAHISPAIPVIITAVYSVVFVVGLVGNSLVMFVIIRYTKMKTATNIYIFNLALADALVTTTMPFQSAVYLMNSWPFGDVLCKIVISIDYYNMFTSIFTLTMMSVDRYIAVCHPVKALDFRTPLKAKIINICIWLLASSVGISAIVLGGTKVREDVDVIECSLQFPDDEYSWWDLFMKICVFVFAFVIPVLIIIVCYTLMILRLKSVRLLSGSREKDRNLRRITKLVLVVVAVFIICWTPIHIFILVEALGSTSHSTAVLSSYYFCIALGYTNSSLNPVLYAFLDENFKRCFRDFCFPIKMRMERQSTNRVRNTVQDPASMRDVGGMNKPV

Structure (SMILES) | Ki [1] | Ki [2] | Ki [3] [nM] | Ki (Mu-type opioid receptor)
CCC(OC(C)=O)C(CC(C)N(C)C)(c1ccccc1)c1ccccc1 (stereo not drawn) | > 10000 nM |  |  | 
CN1CCC23CCCCC2C1Cc1ccc(O)cc13 (stereo not drawn) [17-methyl-17-azatetracyclo[7.5.3.0^{1,10}.0^{2,7}]heptadeca-2(7),3,5-trien-4-ol] | 340 nM and 1210 nM | 401 nM and 86.3 nM |  | 
O=C1CC[C@@]2(O)[C@H]3Cc4ccc(O)c5c4[C@@]2(CCN3CC2CC2)[C@H]1O5 [(1S,5R,13R,17S)-4-(cyclopropylmethyl)-10,17-dihydroxy-12-oxa-4-azapentacyclo[9.6.1.0^{1,13}.0^{5,17}.0^{7,18}]octadeca-7(18),8,10-trien-14-one] | > 10000 nM | > 10000 nM |  | 
CC1(C)SSC(C)(C)[C@@H](NC(=O)[C@@H](N)Cc2ccc(O)cc2)C(=O)NCC(=O)N[C@@H](Cc2ccccc2)C(=O)N[C@H]1C(=O)O [(4S,7S,13S)-13-[(2S)-2-amino-3-(4-hydroxyphenyl)propanamido]-7-benzyl-3,3,14,14-tetramethyl-6,9,12-trioxo-1,2-dithia-5,8,11-triazacyclotetradecane-4-carboxylic acid] | > 10000 nM | > 10000 nM | > 10000 | 
CO[C@@]12CC[C@@]3(C[C@@H]1[C@@](C)(O)C(C)(C)C)[C@H]1Cc4ccc(O)c5c4[C@@]3(CCN1CC1CC1)[C@H]2O5 [BUPRENORPHINE] | > 10000 nM | > 10000 nM |  | 
COc1ccc2c3c1OC1C(O[Si](C)(C)C)C=CC4C(C2)N(C)CCC341 (stereo not drawn) [CAS_553916] | > 10000 nM | > 10000 nM | 501 | 11.1 nM
C=CCN1CC[C@]23CCCCC2[C@H]1Cc1ccc(O)cc13 (stereo partly drawn) [Levallorphan] |  | > 10000 nM and 7950 nM |  | 
COc1ccc2c(c1)C13CCCCC1C(C2)N(C)CC3 (stereo not drawn) [Levomethorpan] | 240 nM and 179 nM |  |  | 
c1cc2c(c(NC3=NCCN3)c1)CCCC2 [NSC_19472] | 785 nM and 2510 nM and 432 nM | 992 nM and 528 nM and 2350 nM | > 10000 | 2120 nM and 1330 nM and > 10000 nM
COc1ccc2c3c1OC1C(O)C=CC4C(C2)N(C)CCC341 (stereo not drawn) [NSC_223652] | > 10000 nM | > 10000 nM |  | 
COc1ccc2c3c1O[C@H]1C(=O)CCC4(O)[C@@H](C2)N(C)CC[C@]314 (stereo partly drawn) [Oxycodone] | > 10000 nM | > 10000 nM |  | 
CCC(=O)O[C@](Cc1ccccc1)(c1ccccc1)[C@H](C)CN(C)C [PROPOXYPHENE] | > 10000 nM | > 10000 nM | 1220 | 34.5 nM
C=CCN1CC[C@]23c4c5ccc(O)c4O[C@H]2C(=O)CC[C@@]3(O)[C@H]1C5 [[17-(2,3-3H-2-propenyl)]-4,5a-epoxy-3,14-dihydroxymorphinan-6-one] | > 10000 nM | > 10000 nM |  | 
C[C@@H](NC(=O)[C@@H](N)Cc1ccc(O)cc1)C(=O)NCC(=O)N(C)[C@@H](Cc1ccccc1)C(=O)NCCO [[tyrosyl-3,5-3H(N)]-D-Ala2-Mephe4-glyol5-enkephalin] | > 10000 nM | > 10000 nM | 210 | 
